In PubChem BioAssay AID192 (DTP/NCI, 2004):
Several values for one entry are separate records, joined by “and”; a condition that tells them apart may be missing. Equal entries are not always repeated. Inconclusive results and toxic doses are left out. Bridge positions count the residues as written; N and C are the ends. Square brackets hold non-standard residues; d marks the D form. Peptide text beside a SMILES is read from it. NMeV = CN[CH](C(=O)O)C(C)C; Sar = CNCC(=O)O

Test system: BDF1 mice, B16 melanoma ip, median survival T/C
Test: NCI In Vivo Anticancer Drug Screen. Data for tumor model B16 Melanoma (intraperitoneal) in B6D2F1 (BDF1) mice
Settings: endpoint: median survival time, higher = longer survival
In short: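 Survival or tumor size is measured after treatment of tumor-bearing mice and normalised to the vehicle-treated control group.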

[1] = dose: 50.0 mg/kg/injection, schedule: Q01DX009 (ip), vehicle: saline with Tween-80
[2] = dose: 100.0 mg/kg/injection, schedule: Q01DX009 (ip), vehicle: saline with Tween-80
[3] = dose: 25.0 mg/kg/injection, schedule: Q01DX009 (ip), vehicle: saline with Tween-80
[4] = dose: 100.0 mg/kg/injection, schedule: Q01DX009 (ip), vehicle: Klucel (hydroxypropylcellulose) (HPC)
[5] = dose: 200.0 mg/kg/injection, schedule: Q01DX009 (ip), vehicle: Klucel (hydroxypropylcellulose) (HPC)
[6] = dose: 400.0 mg/kg/injection, schedule: Q01DX009 (ip), vehicle: Klucel (hydroxypropylcellulose) (HPC)
[7] = dose: 100.0 mg/kg/injection, schedule: Q01DX009 (ip), vehicle: saline
[8] = dose: 200.0 mg/kg/injection, schedule: Q01DX009 (ip), vehicle: saline
[9] = dose: 12.5 mg/kg/injection, schedule: Q01DX009 (ip), vehicle: saline
[10] = dose: 25.0 mg/kg/injection, schedule: Q01DX009 (ip), vehicle: saline
[11] = dose: 50.0 mg/kg/injection, schedule: Q01DX009 (ip), vehicle: saline
[12] = dose: 200.0 mg/kg/injection, schedule: Q01DX009 (ip), vehicle: saline with Tween-80
[13] = dose: 50.0 mg/kg/injection, schedule: Q01DX009 (ip), vehicle: Klucel (hydroxypropylcellulose) (HPC)

SMILES: CC(C)(C)OC(=O)NC(COCc1ccccc1)C(=O)O (stereo unspecified)
- T/C [1]: 90 % of control
- T/C [2]: 90 % of control

SMILES: O=[N+]([O-])c1cc(F)ccc1O
- T/C [3]: 100 % of control

SMILES: C[C@]12CC[C@H](OC(=O)COc3ccc(N(CCCl)CCCl)cc3)C[C@@H]1CC[C@@H]1[C@@H]2CC[C@]2(C)NC(=O)CC[C@@H]12
- T/C (dose: 4.0 mg/kg/injection, schedule: Q01DX009 (ip), vehicle: saline with Tween-80): 111 % of control
- T/C (dose: 32.0 mg/kg/injection, schedule: Q01DX009 (ip), vehicle: saline with Tween-80): 109 % of control

SMILES: O=C(Nc1cc(C(F)(F)F)ccc1Cl)c1ccccc1
- T/C [4]: 94 % of control
- T/C [5]: 91 % of control
- T/C [6]: 94 % of control

SMILES: CC(=O)OC1C(O)C(C)OC(OC2C(OC(=O)C3CCC4C(C3)OC3(CC(OC(=O)/C=C/c5ccccc5)C(C)CO3)C43CO3)OC(C)C(O)C2OC(C)=O)C1O (stereo unspecified)
- T/C (dose: 0.5 mg/kg/injection, schedule: Q01DX009 (ip), vehicle: saline + alcohol): 110 % of control
- T/C (dose: 1.0 mg/kg/injection, schedule: Q01DX009 (ip), vehicle: saline + alcohol): 120 % of control
- T/C (dose: 8.0 mg/kg/injection, schedule: Q01DX009 (ip), vehicle: saline + alcohol): 152 % of control and 158 % of control
- T/C (dose: 16.0 mg/kg/injection, schedule: Q01DX009 (ip), vehicle: saline + alcohol): 151 % of control

SMILES: CCCCOC(=O)C(CC)(CC)C(=O)OCCCC
- T/C [7]: 110 % of control
- T/C [8]: 113 % of control
- T/C (dose: 400.0 mg/kg/injection, schedule: Q01DX009 (ip), vehicle: saline): 93 % of control

SMILES: C=CCNC(=S)Nc1cc(Cl)ccc1C
- T/C (dose: 50.0 mg/kg/injection, schedule: Q04DX003 (ip), vehicle: Klucel (hydroxypropylcellulose) (HPC)): 103 % of control
- T/C (dose: 100.0 mg/kg/injection, schedule: Q04DX003 (ip), vehicle: Klucel (hydroxypropylcellulose) (HPC)): 100 % of control

SMILES: CC1(C)OCC(CO)(Nc2nc(N3CC3)nc(N3CC3)n2)CO1
- T/C (dose: 0.31 mg/kg/injection, schedule: Q01DX009 (ip), vehicle: saline): 105 % of control and 112 % of control

SMILES: O=C(O)c1cccc2c(=O)c3ccccc3sc12
- T/C [4]: 100 % of control
- T/C [5]: 100 % of control
- T/C [6]: 93 % of control

SMILES: C[C@@H]1CC2=CC(=O)CC[C@@H]2[C@H]2CC[C@@]3(C)[C@@H](CC[C@]3(C)O)[C@@H]21
- T/C [3]: 102 % of control
- T/C [1]: 92 % of control and 113 % of control
- T/C [2]: 97 % of control and 108 % of control

SMILES: Cc1ccc(NC(=O)C(Cl)(Cl)Cl)cc1C
- T/C [4]: 96 % of control
- T/C [5]: 96 % of control
- T/C [6]: 96 % of control

SMILES: N=Cc1c(O)[nH]c(=O)[nH]c1=O
- T/C (dose: 150.0 mg/kg/injection, schedule: Q01DX009 (ip), vehicle: Klucel (hydroxypropylcellulose) (HPC)): 87 % of control
- T/C (dose: 300.0 mg/kg/injection, schedule: Q01DX009 (ip), vehicle: Klucel (hydroxypropylcellulose) (HPC)): 95 % of control

SMILES: CN1CCc2cc3c(cc2C(=O)Cc2ccc4c(c2C1)OCO4)OCO3
- T/C [3]: 115 % of control
- T/C (dose: 25.0 mg/kg/injection, schedule: Q04DX003 (ip), vehicle: saline with Tween-80): 117 % of control
- T/C [1]: 112 % of control
- T/C (dose: 50.0 mg/kg/injection, schedule: Q04DX003 (ip), vehicle: saline with Tween-80): 114 % of control
- T/C [2]: 105 % of control
- T/C (dose: 100.0 mg/kg/injection, schedule: Q04DX003 (ip), vehicle: saline with Tween-80): 94 % of control

SMILES: NNC(=O)c1ccncc1
- T/C [9]: 111 % of control
- T/C (dose: 16.0 mg/kg/injection, schedule: Q01DX009 (ip), vehicle: saline): 98 % of control
- T/C [10]: 100 % of control
- T/C (dose: 32.0 mg/kg/injection, schedule: Q01DX009 (ip), vehicle: saline): 98 % of control
- T/C [11]: 105 % of control
- T/C (dose: 64.0 mg/kg/injection, schedule: Q01DX009 (ip), vehicle: saline): 100 % of control
- T/C [7]: 111 % of control
- T/C (dose: 128.0 mg/kg/injection, schedule: Q01DX009 (ip), vehicle: saline): 90 % of control

SMILES: CCN(C(=O)Nc1ccc(OC)cc1)c1ccccc1
- T/C [4]: 97 % of control
- T/C [5]: 100 % of control
- T/C [6]: 88 % of control

SMILES: O=C(O)CCS(=O)(=O)CCC(=O)O
- T/C [1]: 102 % of control
- T/C [2]: 100 % of control
- T/C [12]: 102 % of control

SMILES: CN(C)C(=O)C1(c2ccc(Cl)cc2)CCN(CCCC(=O)c2ccc(F)cc2)CC1
- T/C (dose: 12.5 mg/kg/injection, schedule: Q01DX009 (ip), vehicle: Klucel (hydroxypropylcellulose) (HPC)): 94 % of control
- T/C (dose: 25.0 mg/kg/injection, schedule: Q01DX009 (ip), vehicle: Klucel (hydroxypropylcellulose) (HPC)): 94 % of control
- T/C [13]: 97 % of control

SMILES: CC(C)CC(NC(=O)C(CC(C)C)NC(=O)OCc1ccccc1)C(=O)O (stereo unspecified)
- T/C [1]: 97 % of control
- T/C [2]: 101 % of control
- T/C [12]: 92 % of control

SMILES: C=C1C(=O)O[C@H]2C1[C@H](OC(=O)/C(C)=C\COC(C)=O)C[C@]1(CO1)[C@@H]1[C@H](O)[C@H]3O[C@@]3(C)[C@@H]12 (stereo partly specified)
- T/C (dose: 3.12 mg/kg/injection, schedule: Q01DX009 (ip), vehicle: other): 112 % of control
- T/C (dose: 6.25 mg/kg/injection, schedule: Q01DX009 (ip), vehicle: other): 104 % of control
- T/C (dose: 12.5 mg/kg/injection, schedule: Q01DX009 (ip), vehicle: other): 107 % of control
- T/C (dose: 25.0 mg/kg/injection, schedule: Q01DX009 (ip), vehicle: other): 106 % of control
- T/C (dose: 50.0 mg/kg/injection, schedule: Q01DX009 (ip), vehicle: other): 109 % of control

SMILES: NCC(=O)NC(CCCN=C(N)N)C(=O)O (stereo unspecified)
- T/C [11]: 103 % of control
- T/C [7]: 98 % of control
- T/C [8]: 92 % of control

SMILES: CCCCCCCCC(O)CC (stereo unspecified)
- T/C [13]: 98 % of control
- T/C [4]: 97 % of control
- T/C [5]: 93 % of control

SMILES: CS(=O)(=O)OCC(O)C(O)COS(C)(=O)=O (stereo unspecified)
- T/C [1]: 100 % of control
- T/C [2]: 102 % of control
- T/C [12]: 103 % of control and 114 % of control
- T/C (dose: 800.0 mg/kg/injection, schedule: Q01DX009 (ip), vehicle: saline with Tween-80): 153 % of control

SMILES: NNC(=O)c1ccc(Cl)cc1Nc1ccc(F)cc1
- T/C (dose: 25.0 mg/kg/injection, schedule: Q04DX003 (ip), vehicle: saline): 92 % of control
- T/C (dose: 50.0 mg/kg/injection, schedule: Q04DX003 (ip), vehicle: saline): 97 % of control
- T/C (dose: 100.0 mg/kg/injection, schedule: Q04DX003 (ip), vehicle: saline): 100 % of control

SMILES: O=C(NCCCN1CCN(CCCNC(=O)c2cccnc2)CC1)c1cccnc1
- T/C (dose: 6.25 mg/kg/injection, schedule: Q01DX009 (ip), vehicle: saline): 107 % of control
- T/C [9]: 107 % of control
- T/C [10]: 112 % of control
- T/C [11]: 104 % of control
- T/C [7]: 95 % of control

SMILES: O=C(NC(Cc1ccccc1)C(=O)O)OCC1c2ccccc2-c2ccccc21 (stereo unspecified)
- T/C [13]: 106 % of control
- T/C [4]: 114 % of control

SMILES: N/C=N/O
- T/C [10]: 104 % of control
- T/C [11]: 111 % of control
- T/C [7]: 109 % of control
- T/C [8]: 117 % of control

SMILES: O=C(O)CCC1CCCCC1=O (stereo unspecified)
- T/C [5]: 120 % of control
- T/C [6]: 100 % of control

SMILES: COC(CCC#N)c1ccc(Cl)cc1 (stereo unspecified)
- T/C [2]: 101 % of control
- T/C [12]: 96 % of control
- T/C (dose: 400.0 mg/kg/injection, schedule: Q01DX009 (ip), vehicle: saline with Tween-80): 98 % of control

SMILES: CC(C)C1NC(=O)C(N)C(C)OC(=O)C(C(C)C)N(C)C(=O)CN(C)C(=O)C2CCCN2C1=O (stereo unspecified) (tested in a mixture with another compound) (H-TVP[Sar][NMeV]; ester 1-C; configuration not given here)
- T/C (dose: 0.22 mg/kg/injection, schedule: Q01DX009 (ip), vehicle: water): 156 % of control
- T/C (dose: 25.0 micrograms/kg/injection, schedule: Q01DX009 (ip), vehicle: saline + alcohol): 107 % of control
- T/C (dose: 50.0 micrograms/kg/injection, schedule: Q01DX009 (ip), vehicle: saline + alcohol): 122 % of control
- T/C (dose: 75.0 micrograms/kg/injection, schedule: Q04DX003 (ip), vehicle: saline + alcohol): 107 % of control and 114 % of control
- T/C (dose: 150.0 micrograms/kg/injection, schedule: Q04DX003 (ip), vehicle: saline + alcohol): 116 % of control
- T/C (dose: 200.0 micrograms/kg/injection, schedule: Q01DX009 (ip), vehicle: saline + alcohol): 150 % of control
- T/C (dose: 300.0 micrograms/kg/injection, schedule: Q04DX003 (ip), vehicle: saline + alcohol): 100 % of control
- T/C (dose: 400.0 micrograms/kg/injection, schedule: Q01DX009 (ip), vehicle: saline + alcohol): 124 % of control
- T/C (dose: 1200.0 micrograms/kg/injection, schedule: Q04DX003 (ip), vehicle: saline + alcohol): 93 % of control and 107 % of control

SMILES: Clc1ccc(/C(=[C](\[Hg]/[C](=C(\c2ccccc2)c2ccc(Cl)cc2)c2ccccc2)c2ccccc2)c2ccccc2)cc1
- T/C [4]: 105 % of control
- T/C [5]: 100 % of control
- T/C [6]: 94 % of control
